Here are results for twelve compounds from patent US20240368194A1, “IRAK4 DEGRADATION AGENT, AND PREPARATION METHOD THEREFOR AND USE THEREOF” (SHANGHAI LEADINGTAC PHARMACEUTICAL CO. LTD., priority 2021, published 2024).

One experiment concerns the target IRAK4 kinase (Homo sapiens (Human), UniProt Q9NWZ3). The experiment can be described thus: IRAK4 kinase activity test (KinEASE-STK S1 HTRF kit). The format is biochemical. The following applies: 2.5 nM IRAK4 kinase, 7 μM ATP, 37° C. 120 min. On the procedure:
Then 2.5 nM 1RAK4 kinase (Carna), 1 μM biotinylated polypeptide substrate (Cisbio) and 7 μM adenosine triphosphate (Sigma-Aldrich) were sequentially added, and the mixtures were incubated at 37° C. for 120 min. Subsequently, an anti-phosphoserine/threonine antibody (Cisbio) conjugated with a europium element compound and conjugated modified XL665 streptavidin (Cisbio) were added to the reaction systems to stop the reactions. After 1 h of incubation at room temperature, the fluorescence intensity of each well was measured at the excitation wavelength of 337 nm and the emission wavelengths of 620 nm and 665 nm with a microplate reader EnVision (PerkinElmer) in the HTRF mode, and Ratio values were calculated using the formula Ratio=(665 nm/620 nm)×[…]. The inhibition rate of the compound at each concentration was calculated by comparing the fluorescence intensity ratio with that of the control group. Then a non-linear curve fitting of logarithmic concentration-inhibition rate was performed using GraphPad Prism 7, and the IC50 value of the compound was obtained.
On the technique in general: TR-FRET usually uses a lanthanide donor and a delayed reading to cut background.

Experiment [1] has as its target IRAK4 protein in THP-1 cells (Homo sapiens (Human), UniProt Q9NWZ3). Briefly: Degradation of IRAK4 in THP-1 cells, human IRAK4 AlphaLISA assay. The experiment is classed as cell-based. The conditions noted are these: 24 h incubation. The protocol:
THP-1 cells (Stem Cell Bank, Chinese Academy of Sciences) were inoculated onto a 24-well cell culture plate at 0.95 mL/well, with a cell density of 5×10^5 cells/well. The cell plate was incubated overnight in a 37° C., 5% carbon dioxide incubator, and 50 μL of a solution of a compound in dimethyl sulfoxide was added, such that the final concentration of the compound fell within the range of 0.03-3000 nM. After another 24 h of incubation, cells were collected into 1.5 mL centrifuge tubes and centrifuged at 1000 rpm at 4° C. for 5 min. The cell pellets were washed twice with 1×DPBS. The resuspended cells were lysed with 200 μL of lysis buffer (Western and IP cell lysis buffer (Beyotime), supplemented with 1 mM phenylmethylsulfonyl fluoride and protease inhibitor cocktail (Beyotime)), left to stand on ice for 30 mini, and then centrifuged at 14,000 g at 4° C. for 10 min. The supernatant samples were assayed by Western Blot for IRAK4 protein levels.
The above cell lysates were also tested for IRAK4 degradation using a human IRAK4 AlphaLISA assay kit (PerkinElmer, AL3117C). The method is specifically as follows: 2-μL test samples of cell lysate supernatant were transferred to a white 384-well plate (PerkinElmer, 6007299), and 4 μL of 5× anti-IRAK4 receptor beads (PerkinElmer, final concentration of 10 μg/mL) was then added. The plate was incubated at 23° C. for 30 min. Then 4 μL of 5× biotin-labeled anti-IRAK4 antibody (PerkinElmer, final concentration of 1 nM) was added, and the plate was incubated at 23° C. for 60 min. Finally, 10 μL of 2′ streptavidin-labeled donor beads (final concentration of 40 μg/mL) was added to each well, and the plate was incubated in the dark at 23° C. for 30 min. After the incubation was complete, AlphaLISA signal values were measured on a microplate reader EnVision (PerkinElmer, 2105) in the AlphaScreen standard mode, and IRAK4 concentrations were calculated from these signal values. Then a non-linear curve fitting of logarithmic concentration-inhibition rate was performed using GraphPad Prism 7, and the DC50 and Dmax values of the compound were obtained.

Structures are written as SMILES.

Chain of IRAK4 protein in THP-1 cells (Q9NWZ3 whole entry): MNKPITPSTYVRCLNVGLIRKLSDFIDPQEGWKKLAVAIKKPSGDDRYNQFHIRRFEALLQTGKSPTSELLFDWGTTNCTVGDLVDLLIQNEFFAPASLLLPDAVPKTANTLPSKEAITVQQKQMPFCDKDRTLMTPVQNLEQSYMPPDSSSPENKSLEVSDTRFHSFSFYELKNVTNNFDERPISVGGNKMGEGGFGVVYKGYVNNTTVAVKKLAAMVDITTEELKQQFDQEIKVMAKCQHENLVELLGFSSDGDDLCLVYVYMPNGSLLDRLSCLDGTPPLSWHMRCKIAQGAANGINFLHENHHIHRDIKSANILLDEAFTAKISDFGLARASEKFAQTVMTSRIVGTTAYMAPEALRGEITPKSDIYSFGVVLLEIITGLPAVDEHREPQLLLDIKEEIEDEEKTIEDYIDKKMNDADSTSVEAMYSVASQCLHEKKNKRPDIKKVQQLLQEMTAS
Chain of IRAK4 kinase (Q9NWZ3 whole entry): as above

The term IC50 denotes the concentration at which inhibition is half-maximal. Lower therefore signals higher potency. What is called DC50 is the midpoint of the concentration-degradation curve. Consider `O=C1CCN(c2cc(C(=O)N3CCC(CCOC[C@H]4CC[C@@H](n5cc(NC(=O)c6cnn7ccc(N8C[C@H]9C[C@@H]8CO9)nc67)c(C(F)F)n5)CC4)CC3)ccc2Cl)C(=O)N1` [Example 9, 5-((1R,4R)-2-oxa-5-azabicyclo[2.2.1]heptan-5-yl)-N-(1-((1R,4R)-4-((2-(1-(4-chloro-3-(2,4-dioxotetrahydropyrimidin-1(2H)-yl)benzoyl)piperidin-4-yl)ethoxy)methyl)cyclohexyl)-3-(difluoromethyl)-1H-pyrazol-4-yl)pyrazolo[1,5-a]pyrimidine-3-carboxamide], for which the IC50 against IRAK4 kinase stood at 131 nM. Further, in experiment [1], the DC50 came to 129 nM and the “Dmax (%)” value amounted to 81.0%.
What is called Dmax is the largest share of the target that was removed. Regarding `COc1ccc(C(=O)N2CCC3(CCC(CN4CCC(n5cc(NC(=O)c6cnn7ccc(N8C[C@H]9C[C@@H]8CO9)nc67)c(C(F)F)n5)CC4)CC3)CC2)cc1N1CCC(=O)NC1=O` [Example 13, 5-((1R,4R)-2-oxa-5-azabicyclo[2.2.1]heptan-5-yl)-N-(3-(difluoromethyl)-1-(1-((3-(3-(2,4-dioxotetrahydropyrimidin-1(2H)-yl)-4-methoxybenzoyl)-3-azaspiro[5.5]undecan-9-yl)methyl)piperidin-4-yl)-1H-pyrazol-4-yl)pyrazolo[1,5-a]pyrimidine-3-carboxamide], the IC50 against IRAK4 kinase was 19.3 nM. Further, in experiment [1], half-maximal degradation (DC50) was put at 5.5 nM and the greatest degradation seen (Dmax) is 84.4%.
Taken in the same sequence, the figures for `O=C1CCN(c2cc(C(=O)N3CCC4(CCC(CN5CCC(n6cc(NC(=O)c7cnn8ccc(N9CCOCC9)nc78)c(C(F)F)n6)CC5)CC4)CC3)ccc2Cl)C(=O)N1` [Example 15, N-(1-(1-((3-(4-chloro-3-(2,4-dioxotetrahydropyrimidin-1(2H)-yl)benzoyl)-3-azaspiro[5.5]undecan-9-yl)methyl)piperidin-4-yl)-3-(difluoromethyl)-1H-pyrazol-4-yl)-5-morpholinopyrazolo[1,5-a]pyrimidine-3-carboxamide] were 14.2 nM, 2.5 nM and 92.1%.
In turn, `COc1ccc(C(=O)N2CCC3(CCC(CN4CCC(n5cc(NC(=O)c6cnn7ccc(N8CC9CCC(C8)O9)nc67)c(C(F)F)n5)CC4)CC3)CC2)cc1N1CCC(=O)NC1=O` [Example 16, 5-(8-oxa-3-azabicyclo[3.2.1]octan-3-yl)-N-(3-(difluoromethyl)-1-(1-((3-(3-(2,4-dioxotetrahydropyrimidin-1(2H)-yl)-4-methoxybenzoyl)-3-azaspiro[5.5]undecan-9-yl)methyl)piperidin-4-yl)-1H-pyrazol-4-yl)pyrazolo[1,5-a]pyrimidine-3-carboxamide] had an IC50 against IRAK4 kinase of 8.8 nM. In experiment [1], the DC50 was found to be 6.4 nM and the Dmax came to 87.9%.
Taken in the same sequence, the figures for `O=C1CCN(c2cc(C(=O)N3CCC(COCCN4CCC(n5cc(NC(=O)c6cnn7ccc(N8C[C@H]9C[C@@H]8CO9)nc67)c(C(F)F)n5)CC4)CC3)ccc2Cl)C(=O)N1` [Example 18, 5-((1R,4R)-2-oxa-5-azabicyclo[2.2.1]heptan-5-yl)-N-(1-(1-(2-((1-(4-chloro-3-(2,4-dioxotetrahydropyrimidin-1(2H)-yl)benzoyl)piperidin-4-yl)methoxy)ethyl)piperidin-4-yl)-3-(difluoromethyl)-1H-pyrazol-4-yl)pyrazolo[1,5-a]pyrimidine-3-carboxamide] were 66.9 nM, 54.3 nM and 62.5%.
The compound `O=C1CCN(c2cc(C(=O)N3CCC4(CCC(CN5CCC(n6cc(NC(=O)c7cnn8ccc(N9CCNCC9)nc78)c(C(F)F)n6)CC5)CC4)CC3)ccc2Cl)C(=O)N1` [Example 19, N-(1-(1-((3-(4-chloro-3-(2,4-dioxotetrahydropyrimidin-1(2H)-yl)benzoyl)-3-azaspiro[5.5]undecan-9-yl)methyl)piperidin-4-yl)-3-(difluoromethyl)-1H-pyrazol-4-yl)-5-(piperazin-1-yl)pyrazolo[1,5-a]pyrimidine-3-carboxamide] came in with an IC50 at IRAK4 kinase of 3.8 nM. Moreover, in experiment [1], the DC50 was determined as 5.1 nM and the Dmax came to 97.7%.
Take `CN(CCN1CCC(n2cc(NC(=O)c3cnn4ccc(N5C[C@H]6C[C@@H]5CO6)nc34)c(C(F)F)n2)CC1)CC1CCN(C(=O)c2ccc(Cl)c(N3CCC(=O)NC3=O)c2)CC1` [Example 20, 5-((1R,4R)-2-oxa-5-azabicyclo[2.2.1]heptan-5-yl)-N-(1-(1-(2-(((1-(4-chloro-3-(2,4-dioxotetrahydropyrimidin-1(2H)-yl)benzoyl)piperidin-4-yl)methyl)(methyl)amino)ethyl)piperidin-4-yl)-3-(difluoromethyl)-1H-pyrazol-4-yl)pyrazolo[1,5-a]pyrimidine-3-carboxamide]: on IRAK4 kinase, half-maximal inhibition (IC50) was put at 89.2 nM. In experiment [1], this compound yielded a DC50 of 78.6 nM and a Dmax of 87%.
For the compound `O=C1CCN(c2cc(C(=O)N3CCC(CCCCN4CCC(n5cc(NC(=O)c6cnn7ccc(N8C[C@H]9C[C@@H]8CO9)nc67)c(C(F)F)n5)CC4)CC3)ccc2Cl)C(=O)N1` [Example 21, 5-((1R,4R)-2-oxa-5-azabicyclo[2.2.1]heptan-5-yl)-N-(1-(1-(4-(1-(4-chloro-3-(2,4-dioxotetrahydropyrimidin-1(2H)-yl)benzoyl)piperidin-4-yl)butyl)piperidin-4-yl)-3-(difluoromethyl)-1H-pyrazol-4-yl)pyrazolo[1,5-a]pyrimidine-3-carboxamide], the 50% inhibitory concentration (IC50) against IRAK4 kinase amounted to 9.9 nM. In experiment [1], this compound came in with a half-maximal degradation concentration (DC50) of 9.6 nM and a Dmax of 95.5%.
On the same counts, the results for `O=C1CCN(c2cc(C(=O)N3CCC(OCCCN4CCC(n5cc(NC(=O)c6cnn7ccc(N8C[C@H]9C[C@@H]8CO9)nc67)c(C(F)F)n5)CC4)CC3)ccc2Cl)C(=O)N1` [Example 23, 5-((1R,4R)-2-oxa-5-azabicyclo[2.2.1]heptan-5-yl)-N-(1-(1-(3-((1-(4-chloro-3-(2,4-dioxotetrahydropyrimidin-1(2H)-yl)benzoyl)piperidin-4-yl)oxy)propyl)piperidin-4-yl)-3-(difluoromethyl)-1H-pyrazol-4-yl)pyrazolo[1,5-a]pyrimidine-3-carboxamide] are 23 nM, 10.1 nM and 93.7%.
On the same counts, the results for `O=C1CCN(c2cc(C(=O)N3CCC4(CCC(CN5CCC(n6cc(NC(=O)c7cnn8ccc(N9CCOCC9)nc78)c(C(F)F)n6)CC5)CC4)CC3)ccc2F)C(=O)N1` [Example 24, N-(3-(difluoromethyl)-1-(1-((3-(3-(2,4-dioxotetrahydropyrimidin-1(2H)-yl)-4-fluorobenzoyl)-3-azaspiro[5.5]undecan-9-yl)methyl)piperidin-4-yl)-1H-pyrazol-4-yl)-5-morpholinopyrazolo[1,5-a]pyrimidine-3-carboxamide] are 6.08 nM, 6.16 nM and 96.3%.
Consider `O=C1CCN(c2cc(C(=O)N3CCC4(CCC(CN5CCC(n6cc(NC(=O)c7cnn8ccc(N9CCOCC9)nc78)c(C(F)F)n6)CC5)CC4)CC3)ccc2C(F)(F)F)C(=O)N1` [Example 25, N-(3-(difluoromethyl)-1-(1-((3-(3-(2,4-dioxotetrahydropyrimidin-1(2H)-yl)-4-(trifluoromethyl)benzoyl)-3-azaspiro[5.5]undecan-9-yl)methyl)piperidin-4-yl)-1H-pyrazol-4-yl)-5-morpholinopyrazolo[1,5-a]pyrimidine-3-carboxamide], for which, on IRAK4 kinase, the midpoint of inhibition, the IC50, lay at 14.1 nM. For the same compound, in experiment [1], it took 62.1 nM to reach half-maximal degradation (DC50) and the maximal degradation (Dmax) turned out to be 97.8%.
`O=C1CCC(c2cc(C(=O)N3CCN(CCCC(=O)N4CCC(n5cc(NC(=O)c6cnn7ccc(N8CCOCC8)nc67)c(C(F)F)n5)CC4)CC3)ccc2F)C(=O)N1` (stereo not shown) [Example 62, N-(3-(difluoromethyl)-1-(1-(4-(4-(3-(2,6-dioxopiperidin-3-yl)-4-fluorobenzoyl)piperazin-1-yl)butanoyl)piperidin-4-yl)-1H-pyrazol-4-yl)-5-morpholinopyrazolo[1,5-a]pyrimidine-3-carboxamide] yielded an IC50 against IRAK4 kinase of 28.9 nM.
